Source: article PMC13010326, “Fragment-Based Development of NSP14 Exonuclease Inhibitors Confounded by Batch-to-Batch Variability” (ACS Chemical Biology, 2026)
Like-named read-outs stand apart in the source and are kept apart here.

What was measured:
NSP14 ExoN [1] = target: T1, NSP14 ExoN (Severe acute respiratory syndrome coronavirus 2, UniProt P0DTD1); test: biochemical
NSP14 ExoN [2] = target: T1, NSP14 ExoN; set-up: method as in not given; details: small biochemical screens; promiscuous compounds; ref not given; cited from earlier work
NSP14 = NSP14 (Severe acute respiratory syndrome coronavirus 2, UniProt P0DTD1); test: NSP14 DSF thermal shift assay; assay type: binding, SARS-CoV-2; details: 1 mM compound
Protocol: In technical triplicate, NSP14 (0.15 mg mL^–1) was prepared in 20 mM HEPES pH 7.5, 200 mM NaCl, 1 mM TCEP, and 2 mM MgCl2 and mixed with 1 mM compound or 2% DMSO. Samples were rested for 10 min and then mixed with SYPRO Orange (3× concentration, Invitrogen No. S6650). Raw melting curves (25–99 °C, 0.05 °C C/s, 20 μL volume) were collected on a QuantStudio 3 (Applied Biosystems) and each replicate well was individually normalized from 0 to 100 prior to averaging.

substrate dsRNA = test: Thiazole orange dsRNA intercalation (competition) counter-screen; assay type: binding; details: final 0.5% DMSO
Protocol: RNase T1 inhibition assay and thiazole orange RNA intercalation counter-screening assays were conducted essentially as previously reported. The TR-FRET ExoN activity assay dsRNA substrate and Assay Buffer were used for the intercalation assay and mixed with compounds in a final 0.5% DMSO.

[3] = original (first) compound batches, read-out: pIC50, inhibition of NSP14 ExoN in biochemical activity assay (converted)
[4] = resynthesized, more stringently purified second batch
[5] = biochemically active (first) batch

## CC(C)c1csc(CNC(=O)c2cc(CNCC3CC3)[nH]n2)n1 [Compound 16]
NSP14 ExoN [1]; [3]
  IC50: > 501 µM

## CC(C)=CCOc1ccc(/C=C/C(=O)c2ccc(OCC=C(C)C)cc2OCC(=O)O)cc1 [sofalcone]
NSP14 ExoN [2]
  Inhibition of NSP14 ExoN (in words): can inhibit NSP14 ExoN

## Cc1csc(CNC(=O)c2cc[nH]n2)n1 [Compound 2, reference compound]
NSP14 ExoN [1]; [3]
  IC50: > 501 µM

## O=C1C=C2C(=CCOC2O)O1 (centres unmarked) [patulin]
NSP14 ExoN [2]
  Inhibition of NSP14 ExoN (in words): can inhibit NSP14 ExoN

## O=C(O)C1=CC(=C(c2ccc(O)c(C(=O)O)c2)c2ccc(O)c(C(=O)O)c2)C=CC1=O [aurintricarboxylic acid]
NSP14 ExoN [2]
  Inhibition of NSP14 ExoN (in words): can inhibit NSP14 ExoN

## O=C(NCc1nc(C2CC2)cs1)c1n[nH]c2ncccc12 [Compound 14]
NSP14 ExoN [1]; [3]
  IC50: 158 µM

## O=C(NCc1nc(C2CC2)cs1)c1cc[nH]n1 [Compound 6]
NSP14 ExoN [1]; [3]
  IC50: 50.1 µM
NSP14 ExoN [1]; [4]
  Activity of second batches against NSP14 ExoN: inactive

## C#Cc1nc(CNC(=O)c2cc[nH]n2)cs1 [Compound 4]
NSP14 ExoN [1]; original (first) batch, n = 5, read-out: IC50, inhibition of NSP14 ExoN in biochemical activity assay (as printed in text for 4) (converted)
  IC50: 158 µM

## CC(=O)NCc1cc(C(=O)NCc2nc(C3CC3)cs2)n[nH]1 [Compound 13]
NSP14; [5]
  NSP14 destabilization by differential scanning fluorimetry (DSF): evidence of NSP14 destabilization
Substrate dsRNA
  Binding to substrate dsRNA by thiazole orange competition assay: neither bound to substrate dsRNA
NSP14 ExoN [1]
  Activity of second batches against NSP14 ExoN: inactive

## O=C(NCc1nc(C2CC2)cs1)c1cc(CNCC2CC2)[nH]n1 [Compound 12, 5-(((Cyclopropylmethyl)amino)methyl)-N-((4-cyclopropylthiazol-2-yl)methyl)-1H-pyrazole-3-carboxamide]
NSP14; [5]
  NSP14 destabilization by differential scanning fluorimetry (DSF): evidence of NSP14 destabilization
Substrate dsRNA
  Binding to substrate dsRNA by thiazole orange competition assay: neither bound to substrate dsRNA
NSP14 ExoN [1]
  Activity of second batches against NSP14 ExoN: inactive

## CC(C)c1csc(CNC(=O)c2cc[nH]n2)n1 [Compound 3]
NSP14; [5]
  NSP14 destabilization by differential scanning fluorimetry (DSF): evidence of NSP14 destabilization
NSP14; biochemically inactive second batch
  NSP14 destabilization by differential scanning fluorimetry (DSF): did not
NSP14 ExoN [1]; [3]
  IC50: 2.51 µM
NSP14 ExoN [1]; [4]
  Activity of second batches against NSP14 ExoN: inactive

## C=Cc1csc(CNC(=O)c2cc[nH]n2)n1 [Compound 5]
NSP14 ExoN [1]; [3]
  IC50: 251 µM

## O=c1c2ccccc2[se]n1-c1ccccc1 [ebselen]
NSP14 ExoN [2]
  Inhibition of NSP14 ExoN (in words): can inhibit NSP14 ExoN

## CC(=O)NCc1cc(C(=O)NCc2nc(C(C)C)cs2)n[nH]1 [Compound 15]
NSP14 ExoN [1]; [3]
  IC50: > 501 µM

## Cc1cc(N2CCNCC2)nc(C)n1 [Compound 1, reference compound]
NSP14 ExoN [1]; [3]
  IC50: 398 µM
